Assay results taken from paper PMC10910633 (Journal of the American Chemical Society, 2023).
Read-outs that look alike come from different tables or passages of the source.

Experiments:
[1] = system: Jurkat E6-1 cells; assay: Cytotoxicity towards Jurkat lymphocytes; assay type: cell-based
[2] = system: HEK293T cells; assay: Cytotoxicity towards HEK293T cells; assay type: cell-based; conditions: treatment for 48 h at concentrations of ≤ 10 μM
[3] = target: PKCδ; conditions: read-out: Previously reported biochemical Ki values, PDBu; cited from earlier work
[4] = target: T1, native PKCζ (Mus musculus, UniProt Q02956); assay type: binding
T1 sequence (Q02956 1-592): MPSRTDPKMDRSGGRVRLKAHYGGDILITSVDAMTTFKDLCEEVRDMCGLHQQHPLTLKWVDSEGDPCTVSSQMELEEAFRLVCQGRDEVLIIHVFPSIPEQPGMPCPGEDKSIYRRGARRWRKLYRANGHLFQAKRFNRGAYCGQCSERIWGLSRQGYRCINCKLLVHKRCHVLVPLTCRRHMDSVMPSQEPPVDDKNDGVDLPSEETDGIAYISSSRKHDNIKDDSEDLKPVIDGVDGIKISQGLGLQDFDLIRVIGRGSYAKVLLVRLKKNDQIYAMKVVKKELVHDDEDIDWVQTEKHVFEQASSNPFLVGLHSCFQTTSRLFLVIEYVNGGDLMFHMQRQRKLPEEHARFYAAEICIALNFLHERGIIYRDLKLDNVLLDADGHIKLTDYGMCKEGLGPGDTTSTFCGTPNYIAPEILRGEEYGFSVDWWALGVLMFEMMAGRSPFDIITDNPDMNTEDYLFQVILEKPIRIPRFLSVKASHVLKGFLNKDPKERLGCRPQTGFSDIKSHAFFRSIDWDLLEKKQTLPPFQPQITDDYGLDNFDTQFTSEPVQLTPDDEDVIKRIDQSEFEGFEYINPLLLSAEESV

[5] = target: native PKCθ (Mus musculus, UniProt Q02111); assay: cell-based; assay type: binding
native PKCθ, sequence (Q02111 whole entry): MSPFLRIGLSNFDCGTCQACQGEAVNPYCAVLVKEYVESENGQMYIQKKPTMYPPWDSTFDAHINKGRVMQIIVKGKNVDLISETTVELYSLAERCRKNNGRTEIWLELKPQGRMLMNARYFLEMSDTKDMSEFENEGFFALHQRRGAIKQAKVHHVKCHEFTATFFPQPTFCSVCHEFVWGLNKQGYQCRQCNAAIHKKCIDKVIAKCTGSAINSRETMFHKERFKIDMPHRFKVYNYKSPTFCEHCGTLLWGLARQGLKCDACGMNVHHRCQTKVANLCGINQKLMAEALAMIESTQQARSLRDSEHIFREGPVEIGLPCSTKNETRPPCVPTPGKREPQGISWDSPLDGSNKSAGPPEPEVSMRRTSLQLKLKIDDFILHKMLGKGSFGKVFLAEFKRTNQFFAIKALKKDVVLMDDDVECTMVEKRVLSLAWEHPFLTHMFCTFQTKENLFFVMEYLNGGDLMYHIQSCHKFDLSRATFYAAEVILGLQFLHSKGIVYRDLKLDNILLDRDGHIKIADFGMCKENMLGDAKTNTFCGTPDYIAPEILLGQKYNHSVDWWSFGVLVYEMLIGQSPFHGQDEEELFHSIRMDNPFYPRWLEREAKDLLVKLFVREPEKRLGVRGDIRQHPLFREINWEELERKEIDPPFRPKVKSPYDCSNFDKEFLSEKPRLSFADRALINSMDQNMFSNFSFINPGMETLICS

[6] = target: native PKCγ (Mus musculus, UniProt P63318); assay: cell-based; assay type: binding
[7] = target: T2, native PKCε (Mus musculus, UniProt P16054); assay: cell-based; assay type: binding
T2 sequence (P16054 1-737): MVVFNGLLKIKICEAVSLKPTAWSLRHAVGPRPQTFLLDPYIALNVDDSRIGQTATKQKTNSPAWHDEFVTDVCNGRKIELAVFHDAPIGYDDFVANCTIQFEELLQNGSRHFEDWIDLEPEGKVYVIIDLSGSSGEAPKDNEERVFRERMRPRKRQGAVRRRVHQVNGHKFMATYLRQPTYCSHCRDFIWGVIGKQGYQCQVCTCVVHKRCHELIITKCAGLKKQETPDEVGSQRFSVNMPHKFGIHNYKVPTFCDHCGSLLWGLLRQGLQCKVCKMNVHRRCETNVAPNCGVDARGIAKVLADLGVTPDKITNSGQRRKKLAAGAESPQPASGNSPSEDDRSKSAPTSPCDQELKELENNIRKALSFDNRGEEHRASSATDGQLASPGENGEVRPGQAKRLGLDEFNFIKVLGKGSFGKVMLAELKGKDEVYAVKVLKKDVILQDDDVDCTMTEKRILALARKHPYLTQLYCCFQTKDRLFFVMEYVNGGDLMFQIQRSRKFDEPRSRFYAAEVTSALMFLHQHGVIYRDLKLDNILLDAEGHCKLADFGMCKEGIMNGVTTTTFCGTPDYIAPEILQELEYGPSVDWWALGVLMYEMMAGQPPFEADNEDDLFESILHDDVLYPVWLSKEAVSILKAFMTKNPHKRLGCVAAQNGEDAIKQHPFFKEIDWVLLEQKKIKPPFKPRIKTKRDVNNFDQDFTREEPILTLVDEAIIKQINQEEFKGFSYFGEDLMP

[8] = target: native PKCδ (Mus musculus, UniProt P28867); assay: cell-based; assay type: binding
native PKCδ, sequence (P28867 whole entry): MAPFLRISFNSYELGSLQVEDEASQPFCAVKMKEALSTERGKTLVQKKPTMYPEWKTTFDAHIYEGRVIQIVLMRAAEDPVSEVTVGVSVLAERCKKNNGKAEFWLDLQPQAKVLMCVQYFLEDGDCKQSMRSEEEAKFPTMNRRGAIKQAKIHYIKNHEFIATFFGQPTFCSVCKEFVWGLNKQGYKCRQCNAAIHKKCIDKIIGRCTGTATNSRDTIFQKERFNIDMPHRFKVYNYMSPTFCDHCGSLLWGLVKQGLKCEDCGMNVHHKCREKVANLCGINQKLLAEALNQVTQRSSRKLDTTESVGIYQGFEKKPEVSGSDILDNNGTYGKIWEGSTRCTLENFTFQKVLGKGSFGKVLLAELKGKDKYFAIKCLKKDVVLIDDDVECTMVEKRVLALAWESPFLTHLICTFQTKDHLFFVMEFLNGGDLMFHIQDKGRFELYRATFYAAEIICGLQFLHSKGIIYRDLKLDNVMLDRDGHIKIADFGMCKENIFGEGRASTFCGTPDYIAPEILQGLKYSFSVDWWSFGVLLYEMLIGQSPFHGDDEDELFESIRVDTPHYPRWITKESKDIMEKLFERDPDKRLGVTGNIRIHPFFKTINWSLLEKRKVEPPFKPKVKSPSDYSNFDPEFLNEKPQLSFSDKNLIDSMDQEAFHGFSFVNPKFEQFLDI

[9] = target: native PKCη (Mus musculus, UniProt P23298); assay: cell-based; assay type: binding
native PKCη, sequence (P23298 whole entry): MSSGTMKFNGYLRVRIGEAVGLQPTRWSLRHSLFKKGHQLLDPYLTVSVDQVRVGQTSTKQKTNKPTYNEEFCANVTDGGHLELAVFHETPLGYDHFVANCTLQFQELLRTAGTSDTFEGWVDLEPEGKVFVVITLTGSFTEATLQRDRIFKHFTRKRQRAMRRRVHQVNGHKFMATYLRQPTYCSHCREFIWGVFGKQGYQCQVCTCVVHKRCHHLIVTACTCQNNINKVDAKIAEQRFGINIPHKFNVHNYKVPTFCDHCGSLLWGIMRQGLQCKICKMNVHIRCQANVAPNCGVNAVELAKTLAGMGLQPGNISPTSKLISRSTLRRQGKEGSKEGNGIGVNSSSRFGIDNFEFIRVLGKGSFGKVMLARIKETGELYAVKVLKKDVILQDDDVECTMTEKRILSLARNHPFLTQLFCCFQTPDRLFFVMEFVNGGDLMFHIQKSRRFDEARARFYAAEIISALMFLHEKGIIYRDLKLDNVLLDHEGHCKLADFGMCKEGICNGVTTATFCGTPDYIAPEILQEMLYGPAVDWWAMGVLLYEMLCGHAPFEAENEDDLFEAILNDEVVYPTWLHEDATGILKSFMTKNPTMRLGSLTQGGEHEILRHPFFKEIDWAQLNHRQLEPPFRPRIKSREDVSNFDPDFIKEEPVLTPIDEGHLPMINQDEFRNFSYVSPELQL

[10] = target: native PKCβI (Mus musculus, UniProt P68404); assay: cell-based; assay type: binding
native PKCβI, sequence (P68404 whole entry): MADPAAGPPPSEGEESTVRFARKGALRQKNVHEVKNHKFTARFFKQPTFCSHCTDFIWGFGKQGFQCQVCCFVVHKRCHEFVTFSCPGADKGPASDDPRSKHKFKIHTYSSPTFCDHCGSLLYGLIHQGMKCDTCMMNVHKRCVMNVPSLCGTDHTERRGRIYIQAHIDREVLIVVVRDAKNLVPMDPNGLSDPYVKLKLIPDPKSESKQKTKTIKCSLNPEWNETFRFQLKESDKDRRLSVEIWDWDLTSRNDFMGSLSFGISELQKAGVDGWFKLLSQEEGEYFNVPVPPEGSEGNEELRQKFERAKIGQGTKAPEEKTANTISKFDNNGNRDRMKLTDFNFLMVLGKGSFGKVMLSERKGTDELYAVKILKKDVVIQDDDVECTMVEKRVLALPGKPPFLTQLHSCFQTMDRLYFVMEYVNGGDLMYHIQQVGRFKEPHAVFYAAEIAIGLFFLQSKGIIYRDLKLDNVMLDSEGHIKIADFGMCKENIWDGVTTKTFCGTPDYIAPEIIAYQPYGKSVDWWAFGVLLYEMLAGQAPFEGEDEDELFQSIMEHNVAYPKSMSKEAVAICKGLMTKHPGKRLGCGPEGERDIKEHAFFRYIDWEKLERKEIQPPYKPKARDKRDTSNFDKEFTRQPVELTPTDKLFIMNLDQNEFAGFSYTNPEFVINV

[11] = target: PKCη; conditions: read-out: Previously reported biochemical Ki values, Bryostatin 1, [3H]PDBu at 4 °C; cited from earlier work
[12] = target: PKCθ; conditions: read-out: Previously reported biochemical Ki values, Bryostatin 1, [3H]PDBu at 4 °C; cited from earlier work
[13] = target: PKCζ; conditions: [3H]PDBu at 4 °C; cited from earlier work
[14] = target: PKCγ; conditions: read-out: Previously reported biochemical Ki values, Bryostatin 1, [3H]PDBu at 4 °C; cited from earlier work
[15] = target: PKCε; conditions: read-out: Previously reported biochemical Ki values, Bryostatin 1, [3H]PDBu at 4 °C; cited from earlier work
[16] = target: native PKCα (Mus musculus, UniProt P20444); assay: cell-based
[17] = target: PKCβI; conditions: read-out: Previously reported biochemical Ki values, Bryostatin 1, [3H]PDBu at 4 °C; cited from earlier work
[18] = target: PKCα; conditions: read-out: Previously reported biochemical Ki values, Bryostatin 1, [3H]PDBu at 4 °C; cited from earlier work
[19] = read-out: Cellular Ki values for native PKCs

In the case of `CCCC(=O)O[C@@H]1[C@@H](C)[C@@]2(O)[C@@H](C=C(CO)C[C@]3(O)C(=O)C(C)=C[C@@H]23)[C@@H]2C(C)(C)[C@]12OC(=O)CCC` [PDBu, phorbol 12, 13-dibutyrate], the IC50 ([1]; read-out: cytotoxic potency towards Jurkat lymphocytes, IC50) is given as 2 nM, the “cytotoxicity towards HEK293T cells” value [2] is given as “non-toxic” and the Ki [3] is given as […]. For the same molecule, the “Cellular Ki values for native PKCs” value [4] was “No binding”, the Ki [5, 19] was 49 nM and the Ki [6, 19] was 18 nM. The Ki [7, 19] was 43 nM, the “lower affinity for PKCδ in cells than in biochemical assays” value [8] was 10 fold and the Ki [8, 19] was 45 nM. For the same molecule, the Ki [9, 19] was 27 nM, the “fluctuation in measured cellular IC50 and Ki values” [10] was “less than 3 fold” and the Ki [10, 19] was 15 nM.

In the case of `CCC/C=C/C=C/C(=O)O[C@H]1/C(=C/C(=O)OC)C[C@H]2C[C@H]([C@@H](C)O)OC(=O)C[C@H](O)C[C@@H]3C[C@H](OC(C)=O)C(C)(C)[C@](O)(C[C@@H]4C/C(=C/C(=O)OC)C[C@H](/C=C/C(C)(C)[C@]1(O)O2)O4)O3` [bryostatin 1], the “Cellular Ki values for native PKCs” value ([4]; PKCζ, competition with probe 1, BIM1 2 μM, 2 h 37 °C) is listed as “No binding”, the Ki [5] is listed as 8 nM and the Ki [11] is listed as […]. The Ki [12] was […], the Ki [6] was 2 nM and the Ki [7] was 11 nM. The “Previously reported biochemical Ki values, Bryostatin 1” value [13] was “No binding”, the Ki [8] was 17 nM and the “lower affinity for PKCδ in cells than in biochemical assays” value ([8]; cellular Ki versus previously reported biochemical Ki) was 8 fold. The Ki [9] was 5 nM, the Ki [14] was […] and the Ki [15] was […]. For the same molecule, the Ki [16] was 4 nM, the Ki [17] was […] and the Ki [18] was […]. It also gave a Ki [10] of 2 nM.

In the case of `CN(C)CCCn1cc(C2=C(c3c[nH]c4ccccc34)C(=O)NC2=O)c2ccccc21` [BIM1, bisindolylmaleimide I], the “effect of BIM1 on cytotoxicity of probes 1–3 towards Jurkat lymphocytes” value [1] is reported as “reduced or eliminated” and the “effect of BIM1 on toxicity of PDBu towards Jurkat lymphocytes” value ([1]; BIM1 2 μM) is reported as “completely blocked”.
